Source: patent US4670255A, “Hair tonic composition” (priority 1983, dated 1987)

Tested on: testosterone 5α-reductase
Experiment: Determination of 5α-reductase inhibitory activity (labelled testosterone conversion)
Format: biochemical, rats
Description: Prostate gland cells of rats were crushed and a specimen of testosterone 5α-reductase was then prepared by separating microsome from the crushed liquid mixture. The conversion of testosterone to 5α-dihydrotestosterone by the use of the above-prepared enzyme specimen was monitored by radioisotopically labelled testosterone. The reaction mixture was extracted with ethyl acetate and the extract was developed twice by silica gel thin layer chromatography (solvent system, dichloromethane:cyclohexane:acetone=15:4:1). The amount of 5α-dihydrotestosterone were determined from the intensities of the radioactivity.
A 30 μl amount of a 0.05M phosphate buffer (pH=6.6) containing 0.1% of BSA (bovine serum albumin), 10 μl of an enzyme specimen, 8.5 pmol of labelled testosterone, 50 nmol of a reduced form of NADP (nicotinamide adenine dinucleotide phosphate), and 10 μl of a test sample were mixed (total amount=50 μl). The mixture was allowed to react at a temperature of 25° C. for 60 minutes.
After the completion of the reaction, the reaction mixture was extracted with ethyl acetate by adding 50 μl of ethyl acetate to the reaction mixture. The extract was developed in the same manner as mentioned above and the intensity of the radioisotope was measured by using a scintillation counter.
The above-mentioned determination was applied to the samples having various concentrations. The 5α-reductase inhibitory activity was obtained as a inhibitory rate (%) or a 50% inhibitory concentration.

Row | SMILES | 5α-reductase inhibitory activity (in words)
1 | CCCCC/C=C\C/C=C\CCCCCCCC(=O)O [linolic acid] | especially strong
2 | CCCCCCCC/C=C\CCCCCCCC(=O)O [oleic acid] | especially strong
3 | CCCCCCCCCCCCCCCC(=O)O [palmitic acid] | especially strong
4 | CCCCCC/C=C\CCCCCCCC(=O)O [palmitoleic acid] | especially strong
